# Data from patent US8497075B2, “Methods of identifying a modulator that inhibits the binding between Epstein-Barr virus induced receptor 2 and cholesterol derived ligands” (Novartis AG, priority 2008, dated 2013).
# Tests used:
# [1] = test system: MAP/ERK signal in parental CHO cell line; assay: Western blot of MAP/ERK phosphorylation, parental CHO cell line without human EBI2; type: cell-based, Chinese hamster; conditions: high concentrations
# Description: Cells (E2=CHO/AEQ/Gqi5/hEBI2) were seeded at 2×10^5 cell/well in a 12 well plate (TPP #92012) and incubated at 37° C./5% CO2 overnight. The next day medium was removed and cells were starved in serum-free medium for 4 h. Subsequently compound was added for 5 min at RT before cells were lysed (70 ul, 0.5% Triton-X100, 300 mM NaCl, 50 mM Tris pH7.5, Complete™ protease inhibitor cocktail Roche #04693124001). Cell lysates were resolved by gradient SDS-PAGE (NuPage™4-12%, #NP0322Box), transferred by semi-dry blotting to nitrocellulose (Invitrogen, #LC2001) and probed with a phospho p42/44 MAPK (T202/Y204) rabbit mAb (Cell Signalling #4376S). After treatment with a secondary goat anti rabbit-HRP (Pierce #41460) antibody the blots were developed for chemiluminescence (SuperSignal West Dura™, Pierce #34075) and visualized using a BioRad GEL DOC™ imaging system.
# LXRa (NR1H3) = target: T1, LXRa (NR1H3) (Homo sapiens, UniProt Q13133); assay: nuclear hormone receptor reporter gene assay; type: cell-based; conditions: concentrations up to 10 μM
# T1 sequence (Q13133 1-447): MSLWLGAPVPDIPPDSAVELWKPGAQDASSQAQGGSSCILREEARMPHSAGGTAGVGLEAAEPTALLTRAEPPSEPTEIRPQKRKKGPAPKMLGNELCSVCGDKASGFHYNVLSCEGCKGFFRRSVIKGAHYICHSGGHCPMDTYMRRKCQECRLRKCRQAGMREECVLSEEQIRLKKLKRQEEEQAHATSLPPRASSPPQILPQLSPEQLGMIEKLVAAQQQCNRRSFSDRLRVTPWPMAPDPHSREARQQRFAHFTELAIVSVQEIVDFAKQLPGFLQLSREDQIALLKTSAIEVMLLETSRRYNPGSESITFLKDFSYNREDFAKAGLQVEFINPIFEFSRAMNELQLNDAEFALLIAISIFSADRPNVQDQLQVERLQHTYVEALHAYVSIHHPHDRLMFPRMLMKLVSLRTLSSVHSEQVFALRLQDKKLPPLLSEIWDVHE
# Description: (§1) So far oxysterols have been noted to have various physiological activities namely regulate the expression of genes that participate in both sterol and fat metabolism, serve as substrates for the synthesis of bile acids, and are intermediates in the transfer of sterols from the periphery to the liver (Russell, D. W. (2000). Oxysterol biosynthetic enzymes. Biochim. Biophys. Acta 1529, 126-135). […] This included binding assays for 26 different GPCRs, functional assays of 9 different GPCRs, 40 kinase assays, as well as selected ion channels, proteases, transporter and enzyme assays.
# PPARg (NR1C3) = target: T2, PPARg (NR1C3) (Homo sapiens, UniProt P37231); assay: nuclear hormone receptor reporter gene assay; type: cell-based; conditions: concentrations up to 10 μM
# T2 sequence (P37231 1-505): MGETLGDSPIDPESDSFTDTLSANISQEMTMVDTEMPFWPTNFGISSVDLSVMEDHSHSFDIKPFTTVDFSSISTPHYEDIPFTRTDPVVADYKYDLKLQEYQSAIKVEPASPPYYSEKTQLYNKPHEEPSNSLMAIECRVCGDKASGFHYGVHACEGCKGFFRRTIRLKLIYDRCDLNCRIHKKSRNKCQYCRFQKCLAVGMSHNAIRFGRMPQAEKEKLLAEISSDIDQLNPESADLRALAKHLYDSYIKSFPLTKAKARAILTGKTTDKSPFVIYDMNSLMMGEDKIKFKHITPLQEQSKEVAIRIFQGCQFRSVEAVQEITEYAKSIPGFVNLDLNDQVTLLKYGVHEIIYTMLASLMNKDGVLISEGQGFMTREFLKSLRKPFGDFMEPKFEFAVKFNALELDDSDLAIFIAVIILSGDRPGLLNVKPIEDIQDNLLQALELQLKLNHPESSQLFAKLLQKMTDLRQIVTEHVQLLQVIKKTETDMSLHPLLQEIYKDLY
# Description: as §1
# hEBI2 = hEBI2 (Homo sapiens, UniProt P32249); assay: luminescent aequorin functional assay, hEBI2 CHO-Aeq (Gqi5) cells; type: cell-based; parameters: expressed in transfected cells; host or cells: CHO-K1 expressing apoaequorin (CHO-Aeq) with Gqi5; line E2
# Description: The human EBI2 was inserted into the pEFIN3 vector at the EcoRI and XbaI sites in the multiple cloning site. Mouse EBI2 was cloned using RT-PCR from mouse genomic DNA and corresponded to the Genbank accession number Q3U6B2. The mouse EBI2 was inserted into the pEFIN3 vector at the EcoRI and XbaI sites in the multiple cloning site. Plasmids expressing human and mouse EBI2 were stably transfected in CHO-K1 and HEK293 cells expressing the apoaequorin (CHO-Aeq and HEK-Aeq) (Table 1). mRNA sequence integrity of EBI2 gene was checked using RT-PCR at T0 & T30 culture times in CHO cells.
# hEBI2 CHO-Aeq cell lines were screened in a luminescent aequorin functional assay against proprietary libraries of natural ligands and collection of tissue extracts.
# 3 oxysterol and 3 vitamin D3 compounds were tested for EBI2 activation in an aequorin assay.
# hEBI2, sequence (P32249 whole entry): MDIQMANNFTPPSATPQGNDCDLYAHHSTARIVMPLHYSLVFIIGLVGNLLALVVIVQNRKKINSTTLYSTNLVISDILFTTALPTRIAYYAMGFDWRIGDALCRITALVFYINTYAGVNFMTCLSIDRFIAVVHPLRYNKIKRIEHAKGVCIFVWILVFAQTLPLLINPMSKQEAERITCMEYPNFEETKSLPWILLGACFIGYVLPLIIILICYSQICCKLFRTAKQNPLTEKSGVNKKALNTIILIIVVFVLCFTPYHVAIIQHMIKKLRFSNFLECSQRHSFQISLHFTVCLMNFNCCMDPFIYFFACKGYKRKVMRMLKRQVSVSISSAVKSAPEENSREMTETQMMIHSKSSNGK
structure (smiles),measurement,setting,value
"C[C@H](CCCC(C)(C)O)[C@H]1CC[C@H]2[C@@H]3[C@H](O)C=C4C[C@@H](O)CC[C@]4(C)[C@H]3CC[C@]12C [7a,25DHC, cholest-5-ene-3b,7a,25-triol]",activation of MAP/ERK signal in control cell line,[1],do not activate
same,activation of LXRa,LXRa (NR1H3),did not activate
same,activation of PPARg,PPARg (NR1C3),did not activate
"CC(CO)CCC[C@@H](C)[C@H]1CC[C@H]2[C@@H]3[C@H](O)C=C4C[C@@H](O)CC[C@]4(C)[C@H]3CC[C@]12C (some centres unmarked) [7a,27DHC, cholest-5-ene-3b,7a,27-triol]",activation of LXRa,LXRa (NR1H3),did not activate
same,activation of PPARg,PPARg (NR1C3),did not activate
"C[C@H](CCCC(C)(C)O)[C@H]1CC[C@H]2[C@@H]3[C@@H](O)C=C4C[C@@H](O)CC[C@]4(C)[C@H]3CC[C@]12C [7b,25DHC, cholest-5-ene-3b,7b,25-triol]",efficacy compared to the ATP response,hEBI2; ATP response = endogenous P2Y receptors,greater than 100%
same,activation of hEBI2 in different CHO-Aeq cell backgrounds,hEBI2; Gqi5 and Gα16 (=WTA11),activation
same,specificity and selectivity of hEBI2 activation,hEBI2; compared to WT CHO-AeqGqi5 cells and unrelated GPCRs HCR and GPR23,specifically and selectively activates
